# Measurements taken from patent US20230357179A1, “RAF KINASE INHIBITORS AND METHODS OF USE THEREOF” (Deciphera Pharmaceuticals, LLC, priority 2021, published 2023).
# Assays:
# B-Raf kinase = target: T1, B-Raf kinase (Homo sapiens, UniProt P15056); experiment: Biochemical assay for B-Raf.1 (coupled pyruvate kinase/lactate dehydrogenase); conditions: read-out: BRAF.1 IC50
# T1 construct: GST (N); purchased Sigma
# Summary of the method: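 NADH oxidation followed at 340 nm in a pyruvate kinase/lactate dehydrogenase-coupled assay with 0.13 nM B-Raf, 30.1 nM MEK substrate, 1 mM ATP, pH 7.5 Tris buffer, 1% DMSO. Monitored 6 h at 30 °C; rate taken from 4–5 h. IC50 from four-parameter sigmoidal fit.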
# B-Raf (V600E) kinase = target: T2, B-Raf (V600E) kinase (Homo sapiens, UniProt P15056, V600E); experiment: Biochemical assay for B-Raf (V600E).1 (coupled pyruvate kinase/lactate dehydrogenase); conditions: read-out: BRAF V600E.1 IC50
# T2 construct: B-Raf (V600E) residues 416-766 with a; GST (N); purchased SignalChem
# Summary of the method: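 0.03 nM B-Raf(V600E) phosphorylating 30.1 nM MEK at 1 mM ATP, pH 7.5, coupled to PK/LDH, with NADH oxidation followed at 340 nm for 6 h at 30 °C. Rates taken from the 3-4 h window. IC50 from a four-parameter fit of percent inhibition.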
# A-Raf kinase = target: T3, A-Raf kinase (Homo sapiens, UniProt P10398, Y301D/Y302D); experiment: Biochemical assay for A-Raf.1 (coupled pyruvate kinase/lactate dehydrogenase); conditions: read-out: ARAF.1 IC50
# T3 construct: purchased Sigma
# Summary of the method: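 A-Raf (5.55 nM) phosphorylating 30.1 nM MEK with 1 mM ATP was monitored by pyruvate kinase/lactate dehydrogenase-coupled NADH oxidation at 340 nm for 6 h at 30° C, in pH 7.5 Tris buffer with 15 mM MgCl2, 1% DMSO. Rates from 4–5 h gave percent inhibition; IC50 by four-parameter fit.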
# H2405 cells = experiment: H2405 cell proliferation assay (1), resazurin, 96-well; assay type: cell-based; conditions: Homo sapiens, NCI-H2405, inhibition of cell proliferation
# Protocol: H2405 Cell Proliferation Assay (1)
# H2405 cells (catalog #CRL-5944) are obtained from the American Type Culture Collect (ATTC, Manassas, VA). Briefly, cells were grown in RPMI 1640 supplemented with 5% characterized fetal bovine serum (Invitrogen, Carlsbad, CA) and 1% Penicillin/Streptomycin/L-Glutamine at 37° C., 5% CO2, and 95% humidity. Cells are expanded until reaching 70-95% confluency at which point they are subcultured or harvested for assay use. A serial dilution of test compound is dispensed into a 96-well black clear bottom plate in triplicate. Three thousand cells are added per well in 200 μL complete growth medium in the 96-well plate. Plates are incubated for 67-72 hours at 37° C., 5% CO2, and 95% humidity. At the end of the incubation, 40 μL of a 440 μM solution of resazurin (Sigma, St. Louis, MO) in PBS is added to each well of the plate and plates are incubated for an additional 5-6 hours at 37° C., 5% CO2, and 95% humidity. Plates are read on a Synergy2 or equivalent reader (Biotek, Winooski VT) using an excitation of 540 nm and an emission of 600 nm. Data is analyzed using Prism software (GraphPad, San Diego, CA) to calculate IC50 values.
# T2 sequence (P15056 416-766 V600E): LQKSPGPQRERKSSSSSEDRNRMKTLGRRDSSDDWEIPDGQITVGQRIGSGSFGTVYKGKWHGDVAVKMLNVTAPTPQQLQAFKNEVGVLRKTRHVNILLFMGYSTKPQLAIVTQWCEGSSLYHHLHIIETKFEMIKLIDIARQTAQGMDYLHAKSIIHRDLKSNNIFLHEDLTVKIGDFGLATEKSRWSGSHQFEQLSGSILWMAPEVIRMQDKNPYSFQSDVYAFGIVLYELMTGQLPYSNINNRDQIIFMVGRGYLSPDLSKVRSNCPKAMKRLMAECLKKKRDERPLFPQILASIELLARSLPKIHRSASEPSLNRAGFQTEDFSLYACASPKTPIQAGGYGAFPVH
# T3 sequence (P10398 with tags, fused parts or gaps Y301D/Y302D): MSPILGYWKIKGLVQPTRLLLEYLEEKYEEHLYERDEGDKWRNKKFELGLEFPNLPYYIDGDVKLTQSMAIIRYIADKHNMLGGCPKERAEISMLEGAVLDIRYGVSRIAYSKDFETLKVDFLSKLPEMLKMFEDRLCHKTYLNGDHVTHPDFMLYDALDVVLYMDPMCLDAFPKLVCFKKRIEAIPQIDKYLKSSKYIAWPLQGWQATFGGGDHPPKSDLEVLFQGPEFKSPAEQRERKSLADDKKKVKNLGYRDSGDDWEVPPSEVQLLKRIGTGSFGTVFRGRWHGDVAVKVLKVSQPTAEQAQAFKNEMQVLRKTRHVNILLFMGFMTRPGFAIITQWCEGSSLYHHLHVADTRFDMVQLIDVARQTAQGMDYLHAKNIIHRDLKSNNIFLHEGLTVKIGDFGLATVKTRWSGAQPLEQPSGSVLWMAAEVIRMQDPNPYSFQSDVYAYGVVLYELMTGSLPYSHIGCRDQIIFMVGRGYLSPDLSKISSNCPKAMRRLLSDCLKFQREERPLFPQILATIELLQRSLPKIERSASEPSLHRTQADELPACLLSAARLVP
# T1 sequence (P15056 416-766): as the sequence (P15056 416-766 V600E) above, with E185V counted along it
SMILES,IC50 (B-Raf kinase),IC50 (B-Raf (V600E) kinase),IC50 (A-Raf kinase),IC50 (H2405 cells)
Cc1cc(F)c(NC(=O)NCCC2(C)CC2)cc1-c1cnnc(-c2ccnc(NC(=O)C3CC3)c2)c1 [Example 168],≤ 100 nM,≤ 100 nM,500 to 1000 nM,≤ 100 nM
Cc1ncc(NC(=O)NCCC2(C)CC2)cc1-c1ccnc(-c2ccnc(NC(=O)C3(C#N)CC3)c2)c1 [Example 169],≤ 100 nM,≤ 100 nM,> 1000 nM,100 to 500 nM
COC(=O)Nc1cc(-c2cccc(-c3cc(NC(=O)NCCC4(C)CC4)cnc3C)c2)ncn1 [Example 170],≤ 100 nM,≤ 100 nM,> 1000 nM,100 to 500 nM

# More lines, now with the values ahead:
IC50 (B-Raf kinase),IC50 (B-Raf (V600E) kinase),IC50 (A-Raf kinase),IC50 (H2405 cells),SMILES
≤ 100 nM,≤ 100 nM,> 1000 nM,1000 to 10000 nM,COC(=O)Nc1cc(-c2ccnc(-c3cc(NC(=O)NCCC(C)(C)OC)c(F)cc3C)n2)ccn1 [Example 171]
> 1000 nM,100 to 500 nM,> 1000 nM,1000 to 10000 nM,Cc1ncc(NC(=O)NCCN2CCC2)cc1-c1cc(OCCO)nc(-c2ccnc(NC(=O)C3CC3)c2)c1 [Example 172]
